Measured values reported in ChEMBL document CHEMBL1121427, “Decomposition of pharmacological activity indices into mutually independent components using principal component analysis” (J Med Chem, 1980).

Legend:
[1] = tested on: Aspergillus niger; assay: The compound was evaluated for activity against Aspergillus niger; assay type: functional
[2] = tested on: Trichophyton benhamiae; assay: The compound was evaluated for activity against Trichophyton mentagrophytes; assay type: functional, Arthroderma benhamiae
[3] = tested on: Aspergillus oryzae; assay: The compound was evaluated for activity against Aspergillus oryzae; assay type: functional; parameters: unit not given here
[4] = tested on: Albifimbria verrucaria; assay: The compound was evaluated for activity against Myrothecium verrucaria; assay type: functional; parameters: unit not given here
[5] = tested on: Trichoderma viride; assay: The compound was evaluated for activity against Trichoderma viride; assay type: functional; parameters: unit not given here
[6] = tested on: Bacillus subtilis; assay: Inhibitory activity against Bacillus subtilis; assay type: functional; parameters: unit not given here
[7] = tested on: Staphylococcus aureus; assay: The compound was evaluated for activity against strain Micrococcus aureus; assay type: functional; parameters: unit not given here
[8] = tested on: Streptococcus pyogenes; assay: The compound was evaluated for activity against strain Streptococcus hemolyticus; assay type: functional; parameters: unit not given here
[9] = tested on: Enterococcus faecalis; assay: The compound was evaluated for activity against strain Streptococcus faecalis; assay type: functional; parameters: unit not given here

| Compound | -Log C [1] [mM l-1] | -Log C [2] [mM l-1] | -Log C [3] | -Log C [4] | -Log C [5] | -Log C [6] | -Log C [7] | -Log C [8] | -Log C [9] |
| --- | --- | --- | --- | --- | --- | --- | --- | --- | --- |
| Oc1c(Br)cc(Cl)c2cccnc12 | 1.92 | 2.11 |  |  |  |  |  |  |  |
| O=[N+]([O-])c1cc(Cl)c(O)c2ncccc12 | 0.89 | 2.35 |  |  |  |  |  |  |  |
| Oc1c(F)cc(F)c2cccnc12 | 1.36 | 1.66 |  |  |  |  |  |  |  |
| O=[N+]([O-])c1cc(Br)c(O)c2ncccc12 | 1.01 | 2.43 | 0.66 | 1.72 | 1.32 |  |  |  |  |
| Oc1c(Cl)ccc2cccnc12 | 1.77 | 2.25 |  |  |  |  |  |  |  |
| Oc1c(Cl)cc(F)c2cccnc12 | 1.82 | 2.3 | 1.7 | 2.29 | 2.29 |  |  |  |  |
| Nc1cc(Br)c2cccnc2c1O | 0.57 | 1.6 | 0.68 | 0.96 | 0.92 |  |  |  |  |
| COC1/C=C/OC2(C)Oc3c(C)c(O)c4c(O)c(cc(OCC(=O)N5CCCCC5C)c4c3C2=O)NC(=O)/C(C)=C\C=C\C(C)C(O)C(C)C(O)C(C)C(OC(C)=O)C1C (configuration not stated) |  |  |  |  |  | 6.67 | 8.22 | 7.92 | 7.45 |
| O=[N+]([O-])c1cc(Br)c2cccnc2c1O | 0.62 | 2.43 | 0.66 | 1.13 | 1.13 |  |  |  |  |
| Oc1c(F)cc(Br)c2cccnc12 | 1.92 | 2.39 | 1.62 | 2.39 | 1.92 |  |  |  |  |
| Nc1cc(I)c2cccnc2c1O | 1.15 | 2.21 | 1.03 | 1.51 | 1.21 |  |  |  |  |
| CCN(CCO)C(=O)COc1cc2c(O)c3c(O)c(C)c4c(c13)C(=O)C(C)(O/C=C/C(OC)C(C)C(OC(C)=O)C(C)C(O)C(C)C(O)C(C)/C=C/C=C(/C)C(=O)N2)O4 (configuration not stated) |  |  |  |  |  | 5.73 | 7.52 | 6.96 | 6.18 |
| Oc1c(I)cc(F)c2cccnc12 | 2 | 2.46 | 2.62 | 1.16 | 2.46 |  |  |  |  |
| Oc1c(Br)cc(I)c2cccnc12 | 2.07 | 2.24 | 1.85 | 2.24 | 2.24 |  |  |  |  |
| O=[N+]([O-])c1cc(Cl)c2cccnc2c1O | 1.15 | 1.89 |  |  |  |  |  |  |  |
| COC1/C=C/OC2(C)Oc3c(C)c(O)c4c(O)c(cc(OCC(=O)N5CCCCCC5)c4c3C2=O)NC(=O)/C(C)=C\C=C\C(C)C(O)C(C)C(O)C(C)C(OC(C)=O)C1C (configuration not stated) |  |  |  |  |  | 6.45 | 8.32 | 7.92 | 7.45 |
| Oc1c(Br)cc(F)c2cccnc12 | 1.92 | 2.39 | 1.67 | 2.39 | 2.39 |  |  |  |  |
| Oc1c(I)ccc2cccnc12 | 2.13 | 2.43 | 1.48 | 2.43 | 2.43 |  |  |  |  |
| CCCCN(CCCC)C(=O)COc1cc2c(O)c3c(O)c(C)c4c(c13)C(=O)C(C)(O/C=C/C(OC)C(C)C(OC(C)=O)C(C)C(O)C(C)C(O)C(C)/C=C/C=C(/C)C(=O)N2)O4 (configuration not stated) |  |  |  |  |  | 7.16 | 8.46 | 7.86 | 7.46 |
| C#CCN(CCC)C(=O)COc1cc2c(O)c3c(O)c(C)c4c(c13)C(=O)C(C)(O/C=C/C(OC)C(C)C(OC(C)=O)C(C)C(O)C(C)C(O)C(C)/C=C/C=C(/C)C(=O)N2)O4 (configuration not stated) |  |  |  |  |  | 6.97 | 8.44 | 8.62 | 7.14 |
| Oc1c(I)cc(Cl)c2cccnc12 [CLIOQUINOL] | 2.01 | 2.01 |  |  |  |  |  |  |  |
